The values that follow come from patent publication EP2487171A1, “Dihydrobenzopyran, thiochroman, tetrahydroquinoleine and tetrahydronaphthalene derivatives and their use in anti-cancer therapy” (Université de Liège, priority 2011, dated 2012).

The test system of one assay is T98G. In words: MTT colorimetric assay, overall cell growth. As to conditions: Homo sapiens, 72 h, read-out: IC50 (µM) In Vitro Growth Inhibitory Concentrations (MTT Colorimetric Assay) T98G. (Formazan colour is commonly taken as a measure of viable cells.)
Assay [1] deals with human U373 glioma cell line. Kind of assay: Quantitative videomicroscopy (computer-assisted phase-contrast microscopy). In kind it is cell-based. Particulars: U373 cells treated at the IC50 concentration from MTT, filmed for 72h; cytostatic versus cytotoxic effects. The text has this: In addition, the inventors could establish that the compounds of the invention act through a non-apoptosis-related mechanism thanks to a unique experimental approach used by the inventors, i.e. computer-assisted phase-contrast microscopy (quantitative videomicroscopy), making them good candidates as anti-cancer drugs for treating apoptosis-resistant tumor or cancer cells and for overcoming problems linked to the known anti-cancer drugs.
As the MTT test is based on the mitochondria functions, we also investigated the effects of the compounds according to the invention on cell proliferation, migration and morphology by means of a cellular imaging approach (Debeir et al., Cytometry 60:29-40, 2004; Debeir et al., IEEE Trans Med Imaging 24:697-711, 2005) in the human U373 glioma cell line, which is apoptosis-resistant but autophagy-sensitive (Lefranc F et al., Neurosurgery 2008).
Cellular imaging relied on the use of computer-assisted phase-contrast microscopy making possible to film the behaviour of living cells in culture dishes for several days.
Cells were seeded in a 25-cm^2 flask at a low density, treated or not with the compounds of the invention (at their IC50 concentration determined previously by MTT tests) and filmed thereafter for a period of 72h. The experiment was conducted in triplicate.
The behaviour of the cells, in terms of morphology, growth and death were thus investigated. The effect on the overall growth was measured by counting the number of cells on the first (0h) and the last image (72h) of each film. The global growth ratio (GGR) was then deduced by dividing the number of cells on the last image by the number of cells on the first image. The ratio GGRtreated cells / GGRcontrol cells, was further calculated thereby obtaining a value that describes the effect of compounds of the present invention on the overall cell growth.
The methodology is fully described and validated in Debeir et al., 2008, Exp Cell Res 314:2985-2998 and Mathieu et al., 2009, J Cell Mol Med, Feb 20, 2009.
Thanks to the quantitative videomicroscopy (QVM) approach, we classified the compounds into 4 distinctive classes on the basis of their cytostatic versus cytotoxic effects (Table 3). • Class I: actually cytostatic for 3 days (< 10 % of cell death at the 3rd day) • Class II: cytostatic but becomes cytotoxic with < 10% cell death on the 2nd day and > 20% of cell death on the 3rd day • Class III: cytostatic but rapidly becomes cytotoxic with < 10% cell death on the 1st day, > 20% of cell death on the 2nd day and > 50% of cell death on the 3rd day • Class IV: cytotoxic (> 50% of cell death on the first day)
In Fig. 1a, compounds of example 14 (5 µM), example 19 (20 µM) and example 23 (5 µM) belong to QVM Class I because they display cytostatic effects on human U373 GBM cells during the whole duration of the experiment. Cytostatic effects mean that < 10 % of cell death was recorded at the end of the experiment, i.e. at the end of the 3rd day. QVM analyses enable the global growth ratio (GGR) to be calculated in each experiment. The GGR index is obtained by dividing the number of cells in the last image by the number of cells in the first image of the experiment, knowing that 1080 images are taken during the 72 h-period of observation. The ratio GGR^treated cells / GGR^control cells was further calculated thereby obtaining a value that describes the effect of compounds on the overall cell growth. Thus, a GGR index of 0.2 means that they remain only 20% of treated cells compare to the control cells at the end of the experiment.

For the next assay, the system named is Hs683. In words: MTT colorimetric assay, overall cell growth. In kind it is cell-based. As to conditions: Homo sapiens, Hs 683; Hs683 cells, 72 hours of incubation; read-out: IC50 (µM) In Vitro Growth Inhibitory Concentrations (MTT Colorimetric Assay) Hs683.
The test system of assay [2] is Astrocytes - Mouse normal brain cells. In words: MTT colorimetric assay on normal astrocytes (bioselectivity). In kind it is cell-based. As to conditions: Astrocyte, primocultures of astrocytes from newborn mice, 72h, read-out: Mean IC50 MTT values ± SEM (µM) Astrocytes - Mouse normal brain cells (II - 72h).
The test system is the same in assay [3]. The description is as above. In kind it is cell-based. The procedure: (§1) Table 2: Bioselectivity determined by dividing the IC50 obtained with glioma cell lines by the IC50 obtained with normal astrocytes. Bioselectivity was determined only for those compounds whose mean + SEM values on the three human glioma cell lines were ≤ 20 µM.
The next assay relates to U373. Kind of assay: MTT colorimetric assay, overall cell growth. In kind it is cell-based. Particulars: Homo sapiens, U373 MG; U373 cells, 72 hours of incubation; read-out: IC50 (µM) In Vitro Growth Inhibitory Concentrations (MTT Colorimetric Assay) U373.
Assay [4] relates to three Human Glioma Cell Lines. In words: MTT colorimetric assay, mean over the three glioma cell lines. The class given is cell-based. Particulars: mean of the three human glioma cell lines, 72h (Table 2); read-out: Mean IC50 MTT values ± SEM (µM) Glioma - Human Brain cancer cells (I - 72h). The procedure: as §1

Description for Hs683: The compounds and particularly dihydrobenzopyran, thiochroman, tetrahydroquinoleine and tetrahydronaphthalene derivatives of the invention were evaluated for their anti-proliferative effect (by means of the colorimetric MTT assay), in the following human glioblastoma cell-lines U373, T98G and Hs683 and in the mouse glioma cell line GL261. Normal brain cells (primocultures from newborn mice) were also used in order to determine the bioselectivity (B^N/C) of the compounds of interest, i.e. the ratio between the concentrations that inhibits 50% of the growth of brain cancer (C) cells (glioma cells) and the concentration that inhibits 50% of the growth of normal (N) brain cells (primocultures of astrocytes). The ideal situation to be reached is a bioselectivity of B^N/C > 10.
MTT tests were performed in order to rapidly, i.e. within 5 days, measure the effect of compounds of this invention on the overall cell growth. The test measured the number of metabolically active living cells that were able to transform the yellow product 3-(4,5-dimethylthiazol-2-yl)-2,5-diphenyl tetrazolium bromide (herein referred as MTT) into the blue product formazan dye by mitochondrial reduction. The amount of formazan obtained at the end of the experiment, measured by means of a spectrophotometer, is directly proportional to the number of living cells. Optical density determination thus enabled a quantitative measurement of the effect of the investigated compounds as compared to the control condition (untreated cells) and/or to other reference compounds.
Three human cancer cell lines were used in the following MTT tests.
To perform the assay, cells were allowed to grow in 96-well micro-wells with a flat bottom with an amount of 100 µl of cell suspension per well with 1,000 to 8,000 cells/well depending on the cell type used. Each cell line was seeded in its appropriate culture medium.
The detailed experimental procedure was the following: after a 24-hour period of incubation at 37°C, the culture medium was replaced by 100 µl of fresh medium in which the tested compound was previously dissolved, at the following molar concentrations: 10^-8 M, 5.10^-8 M, 10^-7 M, 5.10^-7 M, 10^-6 M, 5.10^-6 M, 10^-5 M, 5.10^-5 M and 10^-4 M. Each experiment was performed in sextuplicate (6 times).
After 72 hours of incubation at 37°C with (experimental conditions) or without (control condition) the compound to be tested, the medium was replaced by 100 µl MTT dissolved in RPMI (1640 without phenol red) at a concentration of 0.5 mg/ml. The micro-wells were subsequently incubated during 3 hours and a half at 37°C and centrifuged at 1300 rpm during 10 minutes. MTT was removed and formazan crystals formed were dissolved in 100 µl DMSO. The micro-wells were shaken for 5 minutes and read on a spectrophotometer at wavelengths of 570 nm (maximal formazan absorbance).
For each experimental condition, the mean optical density was calculated, allowing the determination of the percentage of remaining living cells in comparison to the control.

`CC(C)(C)OC(=O)Nc1ccc2c(c1)C(NC(=O)Nc1cccc(C(F)(F)F)c1)CC(C)(C)O2` (racemic) [Example 25, R/S-N-3-trifluoromethylphenyl-N'-(6-tert-butoxycarbonylamino-3,4-dihydro-2,2-dimethyl-2H-1-benzopyran-4-yl)urea]: the IC50 with T98G was 21 µM; in the assay with Hs683 it was 8 µM; in assay [2], roughly 20 µM; in the assay on U373, 9 µM; in assay [4] it was 13 ± 4 µM. Moreover, in assay [1], the “QVM Class” value is “II (Class II: cytostatic but becomes cytotoxic with < 10% cell death on the 2nd day and > 20% of cell death on the 3rd day)”. In assay [3], the “Bioselectivity (I / II)” value is less than 2.
Take `CC(C)(C)OC(=O)Nc1ccc2c(c1)C(NC(=O)Nc1cc(Cl)cc(Cl)c1)CC(C)(C)O2` (racemic) [Example 26, R/S-N-3,5-dichlorophenyl-N'-(6-tert-butoxycarbonylamino-3,4-dihydro-2,2-dimethyl-2H-1-benzopyran-4-yl)urea]: the IC50 in the assay with T98G is 12 µM; with Hs683, 9 µM; in assay [2], roughly 40 µM; in the assay with U373, 6 µM; in assay [4], 9 ± 2 µM. For the same molecule, the “QVM Class” value in assay [1] is “II (Class II: cytostatic but becomes cytotoxic with < 10% cell death on the 2nd day and > 20% of cell death on the 3rd day)”. In assay [3], the “Bioselectivity (I / II)” value was less than 5.
Take `CC(C)(C)OC(=O)Nc1ccc2c(c1)C(NC(=O)Nc1cc(C(F)(F)F)cc(C(F)(F)F)c1)CC(C)(C)O2` (racemic) [Example 29, R/S-N-3,5-di(trifluoromethyl)phenyl-N'-(6-tert-butoxycarbonylamino-3,4-dihydro-2,2-dimethyl-2H-1-benzopyran-4-yl)urea]: the IC50 in the assay with T98G was 5 µM; in the assay with Hs683 it was 3 µM; in assay [2], roughly 20 µM; in the assay on U373, 4 µM; in assay [4] it was 4 ± 1 µM. In assay [1], the “QVM Class” value is “I (Class I: actually cytostatic for 3 days (< 10 % of cell death at the 3rd day))”. The “Bioselectivity (I / II)” value in assay [3] is given as “∼ 5”.
